The record followed here is patent US4687773A, “(+)-N-N-propylnorapomorphine and selective limbic activity” (priority 1985, dated 1987).

Each structure is given as a SMILES string. Structures can show the parent of a compound that is named as a salt.

For the assay, the target named is T1, Dopamine (DA) sensitive adenylate cyclase (Rattus norvegicus, UniProt P18901).
T1 construct: homogenates of rat corpus striatum; from tissue; host or cells: rat corpus striatum homogenate
The assay is described as follows: Stimulation of formation of cyclic AMP in rat striatal homogenate. It is filed as biochemical. From the text:
assayed in homogenates of corpus striatum obtained from rat brain. The
method of assay of the activity of DAsensitive adenylate cyclase by the
rate of formation of cAMP above a basal (no agonist) level is described
under Experimental Section. The data are mean values of cAMP levels in […]

[1] abbreviates: 2.5 min, read-out: cAMP production, % of control.

T1 sequence (P18901 whole entry): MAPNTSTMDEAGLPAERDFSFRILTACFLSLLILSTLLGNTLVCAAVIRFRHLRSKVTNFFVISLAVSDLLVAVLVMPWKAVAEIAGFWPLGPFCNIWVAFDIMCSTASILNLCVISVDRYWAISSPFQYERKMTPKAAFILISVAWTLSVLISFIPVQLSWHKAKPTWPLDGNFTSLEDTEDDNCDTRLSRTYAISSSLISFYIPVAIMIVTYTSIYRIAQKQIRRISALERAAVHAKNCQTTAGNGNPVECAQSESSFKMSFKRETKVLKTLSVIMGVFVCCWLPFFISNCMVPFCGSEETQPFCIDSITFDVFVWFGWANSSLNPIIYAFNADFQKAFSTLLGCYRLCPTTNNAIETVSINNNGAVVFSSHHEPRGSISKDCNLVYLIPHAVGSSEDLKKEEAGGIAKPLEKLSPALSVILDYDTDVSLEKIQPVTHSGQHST

Under “10 μM”, `CCCN1CCc2cccc3c2[C@@H]1Cc1ccc(O)c(O)c1-3` [(+)NPA, (S)-N-n-Propylnorapomorphine Hydrochloride] showed a cAMP production of 2.95 ± 0.19 picomoles per 2.5 min. Further, the cAMP production (100 μM) is listed as 3.19 ± 0.16 picomoles per 2.5 min. Further, under setting [1], the cAMP formation, % of control at 10 µM turned out to be 119% and the cAMP formation, % of control at 100 µM stood at 129%.
